Assay results from ChEMBL document CHEMBL1201862, “PubChem BioAssay data set” (2004).
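All cell lines were grown in 96-well plates and treated with compound for 48 hours. GI50: concentration for 50% inhibition of growth.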 Active and inactive are the calls of the source. Rule as the data show it: active = GI50 up to about 1.1 µM and inactive = higher.

Tests used:
Test in all cases: DTP human tumour cell line panel, 48 h
COLO 205 = test system: COLO 205
NCI-H226 = test system: NCI-H226
MOLT-4 = test system: MOLT-4
OVCAR-5 = test system: OVCAR-5
UO-31 = test system: UO-31
SF-539 = test system: SF-539
HOP-92 = test system: HOP-92
IGROV-1 = test system: IGROV-1
SK-MEL-28 = test system: SK-MEL-28
TK-10 = test system: TK-10
A549 = test system: A549
U-251 = test system: U-251
CCRF-CEM = test system: CCRF-CEM
OVCAR-3 = test system: OVCAR-3
SNB-19 = test system: SNB-19
UACC-257 = test system: UACC-257
OVCAR-4 = test system: OVCAR-4
A498 = test system: A498

Measured: GI50

COc1c(O)c2c3c(cc(C)cc3c1C(C)C)OC2
inactive: COLO 205 > 100 µM | NCI-H226 > 100 µM | MOLT-4 > 100 µM | OVCAR-5 > 100 µM | UO-31 > 100 µM | SF-539 > 100 µM | HOP-92 > 100 µM | IGROV-1 > 100 µM | SK-MEL-28 > 100 µM | TK-10 > 100 µM | A549 > 100 µM | U-251 > 100 µM | CCRF-CEM > 100 µM | OVCAR-3 > 100 µM | SNB-19 > 100 µM | UACC-257 > 100 µM | OVCAR-4 > 100 µM

CCN(CC)C(=O)C/C(C)=N/NC(=O)c1ccncc1
inactive: COLO 205 > 100 µM | NCI-H226 > 100 µM | MOLT-4 > 100 µM | OVCAR-5 > 100 µM | UO-31 > 100 µM | SF-539 > 100 µM | HOP-92 > 100 µM | IGROV-1 > 100 µM | SK-MEL-28 > 100 µM | TK-10 > 100 µM | A549 > 100 µM | U-251 > 100 µM | CCRF-CEM > 100 µM | OVCAR-3 > 100 µM | UACC-257 > 100 µM

O=C1CC(c2ccccc2)NCN1 (centres undefined)
inactive: COLO 205 > 100 µM | NCI-H226 > 100 µM | MOLT-4 > 100 µM | OVCAR-5 > 100 µM | UO-31 > 100 µM | IGROV-1 > 100 µM | SK-MEL-28 > 100 µM | TK-10 > 100 µM | A549 > 100 µM | U-251 > 100 µM | CCRF-CEM > 100 µM | OVCAR-3 > 100 µM | SNB-19 > 100 µM | UACC-257 > 100 µM | OVCAR-4 > 100 µM | A498 > 100 µM

CCOC1=C2C(=O)OC(=O)C2C2CCCCC2=C1 (centres undefined)
inactive: COLO 205 > 100 µM | MOLT-4 > 100 µM | UO-31 > 100 µM | SF-539 > 100 µM | HOP-92 > 100 µM | IGROV-1 > 100 µM | SK-MEL-28 > 100 µM | TK-10 > 100 µM | A549 > 100 µM | U-251 > 100 µM | CCRF-CEM > 100 µM | OVCAR-3 > 100 µM | SNB-19 > 100 µM | UACC-257 > 100 µM | OVCAR-4 > 100 µM | A498 > 10 µM

CC(=O)Oc1c(C)c(-c2ccccc2)c(C)c(-c2ccccc2)c1C(=S)c1ccccc1
inactive: COLO 205 > 100 µM | NCI-H226 > 100 µM | MOLT-4 93.3 µM | OVCAR-5 > 100 µM | UO-31 > 100 µM | SF-539 > 100 µM | HOP-92 > 100 µM | IGROV-1 > 100 µM | SK-MEL-28 > 100 µM | TK-10 > 100 µM | A549 > 100 µM | U-251 > 100 µM | CCRF-CEM > 100 µM | OVCAR-3 > 100 µM | SNB-19 > 100 µM | UACC-257 > 100 µM | A498 > 100 µM

Cc1c(C(=O)/C=C/c2ccccc2O)c(=O)n(-c2ccccc2)n1C
inactive: COLO 205 26.4 µM | NCI-H226 33.5 µM | MOLT-4 19.3 µM | OVCAR-5 66.8 µM | UO-31 > 10 µM | SF-539 19.8 µM | HOP-92 28.3 µM | IGROV-1 42.1 µM | SK-MEL-28 25.1 µM | TK-10 90.6 µM | A549 34 µM | U-251 12.2 µM | CCRF-CEM 9.55 µM | OVCAR-3 29.2 µM | SNB-19 43.8 µM | UACC-257 22.4 µM | A498 27.5 µM

O=C(O)c1c(-c2cccc3ccccc23)sc(-c2cccc3ccccc23)c1C(=O)O
inactive: COLO 205 > 100 µM | NCI-H226 > 100 µM | MOLT-4 27.2 µM | OVCAR-5 > 100 µM | UO-31 88.3 µM | SF-539 > 100 µM | HOP-92 > 100 µM | IGROV-1 > 100 µM | SK-MEL-28 > 100 µM | TK-10 > 100 µM | A549 > 100 µM | U-251 > 100 µM | CCRF-CEM 22.1 µM | OVCAR-3 63.8 µM | SNB-19 > 100 µM | UACC-257 > 100 µM

O=C1[C@H](Cl)[C@H]2c3cc4ccccc4nc3Oc3ccccc3N12
inactive: COLO 205 54.8 µM | NCI-H226 75.9 µM | MOLT-4 27.7 µM | OVCAR-5 67.3 µM | UO-31 14.9 µM | IGROV-1 32.7 µM | SK-MEL-28 33 µM | TK-10 > 100 µM | A549 33.5 µM | U-251 30.9 µM | CCRF-CEM 61 µM | OVCAR-3 48.4 µM | SNB-19 46.8 µM | UACC-257 50.4 µM | OVCAR-4 45.5 µM | A498 42.9 µM

O=C(CO)C1CC2C=CC1C2 (centres undefined)
inactive: COLO 205 > 100 µM | MOLT-4 > 100 µM | OVCAR-5 > 100 µM | UO-31 > 100 µM | SF-539 > 100 µM | HOP-92 > 100 µM | IGROV-1 > 100 µM | SK-MEL-28 > 100 µM | TK-10 > 100 µM | A549 > 100 µM | U-251 > 100 µM | CCRF-CEM > 100 µM | OVCAR-3 > 100 µM | SNB-19 > 100 µM | UACC-257 > 100 µM | OVCAR-4 > 100 µM | A498 > 100 µM

S=C(Nc1ccccc1)Nc1ccccc1SC(/C=C/NNC1=NN=C(c2ccccc2)C(c2ccccc2)N1)c1ccccc1 (centres undefined)
inactive: COLO 205 > 100 µM | MOLT-4 13.4 µM | OVCAR-5 > 100 µM | SF-539 83.9 µM | HOP-92 3.97 µM | IGROV-1 > 100 µM | SK-MEL-28 > 100 µM | TK-10 > 100 µM | A549 > 100 µM | U-251 > 100 µM | CCRF-CEM 28.5 µM | OVCAR-3 > 100 µM | SNB-19 > 100 µM | OVCAR-4 5.68 µM | A498 > 100 µM

O=[N+]([O-])[C@@H]1C2C=CC(C2)[C@H]1Cl (some centres undefined)
inactive: COLO 205 > 100 µM | MOLT-4 > 100 µM | OVCAR-5 > 100 µM | UO-31 > 100 µM | SF-539 > 100 µM | HOP-92 > 100 µM | IGROV-1 > 100 µM | SK-MEL-28 > 100 µM | TK-10 > 100 µM | A549 > 100 µM | U-251 > 100 µM | CCRF-CEM > 100 µM | OVCAR-3 > 100 µM | SNB-19 > 100 µM | UACC-257 > 100 µM | OVCAR-4 > 100 µM | A498 > 100 µM

O=C(CSc1nnc[nH]1)C[P+](c1ccccc1)(c1ccccc1)c1ccccc1
inactive: COLO 205 > 100 µM | MOLT-4 40.2 µM | OVCAR-5 > 100 µM | UO-31 > 100 µM | SF-539 > 100 µM | HOP-92 22.9 µM | IGROV-1 > 100 µM | SK-MEL-28 > 100 µM | TK-10 > 100 µM | A549 > 100 µM | CCRF-CEM 78.2 µM | OVCAR-3 74.8 µM | SNB-19 > 100 µM | UACC-257 > 100 µM | OVCAR-4 94 µM
